Data as given in ChEMBL document CHEMBL3352684, “Discovery of MK-3697: a selective orexin 2 receptor antagonist (2-SORA) for the treatment of insomnia” (Bioorg Med Chem Lett, 2014).
Positions count from the first letter of the chain named. The source made the active and inactive calls. The rule behind the calls is not given here.

How the values were obtained:
[1] = species: Canis lupus familiaris; assay: Antagonist activity at dog OX1R by FLIPR assay
[2] = Lipophilicity, log D of the compound; assay type: physicochemical; settings: octanol/water
[3] = Plasma protein binding in Sprague-Dawley rat; assay type: ADME, cell-free; settings: read-out: PPB (converted)
[4] = species: Rattus norvegicus; assay: Ex vivo receptor occupancy at human OX2R expressed in transgenic rat at plasma concentration of 1.06 uM; assay type: functional
[5] = Tmax in rat at dog at 3 mg/kg, po; assay type: ADME, organism-based, Canis lupus familiaris; design: dose 3 mg/kg, route oral; settings: in vivo
[6] = molecular target: T1, Orexin receptor type 2 (Mus musculus) (UniProt P58308); assay: Antagonist activity at mouse OX2R by FLIPR assay
T1 sequence (whole entry): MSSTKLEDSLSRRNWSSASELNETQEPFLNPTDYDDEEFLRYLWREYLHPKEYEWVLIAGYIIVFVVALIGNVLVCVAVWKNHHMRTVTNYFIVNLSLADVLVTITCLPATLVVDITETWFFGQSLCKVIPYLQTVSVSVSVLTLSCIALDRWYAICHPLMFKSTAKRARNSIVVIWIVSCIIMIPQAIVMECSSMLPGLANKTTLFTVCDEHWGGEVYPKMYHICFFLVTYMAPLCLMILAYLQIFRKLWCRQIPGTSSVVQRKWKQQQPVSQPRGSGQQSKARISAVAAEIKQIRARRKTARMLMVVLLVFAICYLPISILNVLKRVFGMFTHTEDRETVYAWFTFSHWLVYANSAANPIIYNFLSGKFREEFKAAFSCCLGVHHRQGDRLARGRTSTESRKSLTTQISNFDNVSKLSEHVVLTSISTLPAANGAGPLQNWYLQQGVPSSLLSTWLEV

[7] = Tmax in rat at 5 mg/kg, po; assay type: ADME, organism-based; design: dose 5 mg/kg, route oral; settings: in vivo
[8] = system: Canis familiaris; assay: Increase in rapid eye movement sleep in dog at 3 mg/kg, po after 3.5 hrs; assay type: functional, organism-based; design: dose 3 mg/kg; settings: Canis lupus familiaris
[9] = molecular target: T2, Orexin/Hypocretin receptor type 1 (Mus musculus) (UniProt P58307); assay: Antagonist activity at mouse OX1R by FLIPR assay
T2 sequence (whole entry): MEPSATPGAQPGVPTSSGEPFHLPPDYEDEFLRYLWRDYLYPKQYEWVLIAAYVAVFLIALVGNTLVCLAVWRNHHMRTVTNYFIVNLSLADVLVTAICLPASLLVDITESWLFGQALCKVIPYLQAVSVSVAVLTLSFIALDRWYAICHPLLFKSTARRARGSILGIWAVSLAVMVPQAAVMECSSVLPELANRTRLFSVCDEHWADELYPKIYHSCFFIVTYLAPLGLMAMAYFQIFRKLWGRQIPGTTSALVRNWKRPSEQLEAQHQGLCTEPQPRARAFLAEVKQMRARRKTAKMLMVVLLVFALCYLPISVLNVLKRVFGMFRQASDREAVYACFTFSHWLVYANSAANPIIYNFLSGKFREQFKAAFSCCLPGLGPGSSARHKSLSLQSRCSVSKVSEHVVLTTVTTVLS

[10] = Tmax in Sprague-Dawley rat at 15 mg/kg, po; assay type: ADME, organism-based; design: dose 15 mg/kg, route oral; settings: in vivo
[11] = system: Rattus norvegicus; assay: Reduction in active wake sleep in Sprague-Dawley rat at 15 mg/kg, po after 2 hrs; assay type: functional, organism-based; design: dose 15 mg/kg
[12] = molecular target: T3, Orexin/Hypocretin receptor type 1 (Rattus norvegicus) (UniProt P56718); assay: Antagonist activity at Sprague-Dawley rat OX1R by FLIPR assay
T3 sequence (whole entry): T2 sequence (whole entry) with Q116H, H205R, I221F, A232G, R245P, G383S

[13] = Cmax in mouse at 100 mg/kg, po; assay type: ADME, organism-based; design: dose 100 mg/kg, route oral; settings: in vivo
[14] = Half life in rat at 2 mg/kg, iv; assay type: ADME, organism-based; design: dose 2 mg/kg, route intravenous; settings: in vivo
[15] = Volume of distribution at steady state in rat at 2 mg/kg, iv; assay type: ADME, organism-based; design: dose 2 mg/kg, route intravenous; settings: in vivo, read-out: Vdss
[16] = system: Mus musculus; assay: Reduction in active wake sleep in mouse at 100 mg/kg, po after 2 hrs; assay type: functional, organism-based; design: dose 100 mg/kg
[17] = Apparent permeability of the compound; assay type: physicochemical; settings: not told
[18] = Drug uptake in Sprague-Dawley rat CSF at 15 mg/kg, po; assay type: ADME, organism-based, Cerebrospinal fluid; design: dose 15 mg/kg, route oral; settings: in vivo, read-out: Drug uptake
[19] = system: Mus musculus; assay: Increase in rapid eye movement sleep in OX2R-knockout mouse at 100 mg/kg, po after 2 hrs; assay type: functional, organism-based; design: dose 100 mg/kg
[20] = system: Mus musculus; assay: Increase in slow wave sleep in OX2R-knockout mouse at 100 mg/kg, po after 2 hrs; assay type: functional, organism-based; design: dose 100 mg/kg
[21] = system: Rattus norvegicus; assay: Increase in slow wave sleep in Sprague-Dawley rat at 15 mg/kg, po after 2 hrs; assay type: functional, organism-based; design: dose 15 mg/kg
[22] = Cmax in Sprague-Dawley rat at 15 mg/kg, po; assay type: ADME, organism-based; design: dose 15 mg/kg, route oral; settings: in vivo
[23] = Clearance in dog with cassette dosing; assay type: ADME, organism-based, Canis lupus familiaris; settings: in vivo
[24] = species: Rattus norvegicus; assay: Ex vivo receptor occupancy at human OX2R expressed in transgenic rat at CSF concentration of 40 nM; assay type: functional
[25] = Clearance in dog at 1 mg/kg, iv; assay type: ADME, organism-based, Canis lupus familiaris; design: dose 1 mg/kg, route intravenous; settings: in vivo
[26] = molecular target: T4, Orexin receptor type 2 (Canis lupus familiaris) (UniProt Q9TUP7); assay: Antagonist activity at dog OX2R by FLIPR assay
T4 sequence (whole entry): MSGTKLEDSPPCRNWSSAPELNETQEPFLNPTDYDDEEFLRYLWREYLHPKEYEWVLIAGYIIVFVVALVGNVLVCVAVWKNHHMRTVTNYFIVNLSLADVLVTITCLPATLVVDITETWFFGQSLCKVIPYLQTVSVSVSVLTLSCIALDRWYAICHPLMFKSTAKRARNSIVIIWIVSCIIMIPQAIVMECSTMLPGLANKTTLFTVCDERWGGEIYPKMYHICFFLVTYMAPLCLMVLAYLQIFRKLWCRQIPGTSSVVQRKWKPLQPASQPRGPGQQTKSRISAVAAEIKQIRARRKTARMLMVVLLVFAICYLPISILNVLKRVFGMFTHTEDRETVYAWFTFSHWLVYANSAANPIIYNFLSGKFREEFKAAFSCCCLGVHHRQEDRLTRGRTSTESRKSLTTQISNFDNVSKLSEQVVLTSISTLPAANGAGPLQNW

[27] = Clearance in rat at 2 mg/kg, iv; assay type: ADME, organism-based; design: dose 2 mg/kg, route intravenous; settings: in vivo
[28] = Cmax in dog at 3 mg/kg, po; assay type: ADME, organism-based, Canis lupus familiaris; design: dose 3 mg/kg, route oral; settings: in vivo
[29] = Oral bioavailability in rat at 5 mg/kg; assay type: ADME, organism-based; settings: in vivo
[30] = AUC (0 to infinity) in rat at 5 mg/kg, po; assay type: ADME, organism-based; design: time infinity, dose 5 mg/kg, route oral; settings: plasma

Q: For `COc1ccc(CNC(=O)c2cc(-c3cncc(C)c3)ncc2-c2nccs2)nc1OC`, which INH [1] is on record?
A: 10 µM

Q: And the logD [2]?
A: 1.9

Q: What about the fraction unbound [3] of the same molecule?
A: 0.164

Q: What about the Occ [4] of the same molecule?
A: 90%

Q: What about the Tmax [5] of the same molecule?
A: 42 min

Q: What about the INH [6] of the same molecule?
A: 12 nM

Q: What about the Tmax [7] of the same molecule?
A: 18 min

Q: And the Activity [8]?
A: Active

Q: What about the INH [9] of the same molecule?
A: 27.2 µM

Q: What about the Tmax [10] of the same molecule?
A: 48 min

Q: And the Activity [11]?
A: Active

Q: What about the INH [12] of the same molecule?
A: 36.4 µM

Q: What about the Cmax [13] of the same molecule?
A: 55.3 µM

Q: What about the half-life [14] of the same molecule?
A: 24 min

Q: And the Vd [15]?
A: 1.2 L/kg

Q: What about the Activity [16] of the same molecule?
A: Active

Q: And the Papp [17]?
A: 33 ×10⁻⁶ cm/s

Q: And the concentration [18]?
A: 900 nM

Q: And the Activity [19]?
A: inactive

Q: What about the Activity [20] of the same molecule?
A: inactive

Q: And the Activity [21]?
A: Active

Q: What about the Cmax [22] of the same molecule?
A: 5.3 µM

Q: What about the clearance [23] of the same molecule?
A: 12 mL/min/kg

Q: What about the Occ [24] of the same molecule?
A: 90%

Q: And the clearance [25]?
A: 7.2 mL/min/kg

Q: And the INH [26]?
A: 16 nM

Q: And the clearance [27]?
A: 40.7 mL/min/kg

Q: What about the Cmax [28] of the same molecule?
A: 2700 nM

Q: What about the bioavailability [29] of the same molecule?
A: 64%

Q: And the AUC(0-inf) [30]?
A: 3 µM·h
